Reference: US20240109930A1, “TRIAZOLYL-METHYL SUBSTITUTED ALPHA-D-GALACTOPYRANOSIDE DERIVATIVES” (Idorsia Pharmaceuticals Ltd, priority 2021, published 2024)
pIC50: −log10 of the molar value.

How the values were obtained:
[1] = molecular target: human Gal-3 (hGal-3) (Homo sapiens (Human), UniProt P17931); experiment: Competitive binding assay: biotinylated hGal-3 binding to microplate-adsorbed asialofetuin (ASF); conditions: IC50 values from several measurements given as geomean
How it was run: (§1)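 Biotinylated hGal-3 or hGal-1 (preferably cysteine-free Cys→Ser mutant), 300–1000 ng/mL, competes with compound for ASF-coated wells for 3 h at 4 °C. Bound lectin detected with streptavidin-peroxidase (80 ng/mL, 1 h, 4 °C) and ABTS by absorbance; IC50 reported as geomean of several runs.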

[2] = molecular target: human Gal-1 (hGal-1) (Homo sapiens, UniProt P09382, C131S/C17S/C43S/C61S/C89S); experiment: Competitive binding assay: biotinylated hGal-1 binding to microplate-adsorbed asialofetuin (ASF); conditions: IC50 values from several measurements given as geomean
How it was run: as §1

human Gal-3 (hGal-3), sequence (P17931 whole entry): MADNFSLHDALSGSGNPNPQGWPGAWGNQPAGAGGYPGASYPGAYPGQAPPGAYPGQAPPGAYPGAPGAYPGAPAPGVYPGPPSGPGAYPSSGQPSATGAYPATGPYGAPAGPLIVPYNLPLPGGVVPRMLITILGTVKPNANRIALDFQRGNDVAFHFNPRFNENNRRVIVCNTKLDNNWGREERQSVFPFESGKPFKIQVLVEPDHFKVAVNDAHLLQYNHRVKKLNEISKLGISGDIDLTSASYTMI

Compound	pIC50 [1]	pIC50 [2]
CO[C@@H]1[C@@H](n2cc(-c3ccc(Br)c(F)c3F)nn2)[C@@H](O)[C@@H](CO)O[C@@H]1Cn1cc(C2(C)CCC2)nn1 [Ex 4.2.13.]	7.30	5.71
CO[C@@H]1[C@@H](n2cc(-c3ccc(Br)c(F)c3F)nn2)[C@@H](O)[C@@H](CO)O[C@@H]1Cn1cc(C2(C)CC2)nn1 [Ex 4.2.23.]	7.30	5.61
CO[C@@H]1[C@@H](n2cc(-c3ccc(Br)c(F)c3F)nn2)[C@@H](O)[C@@H](CO)O[C@@H]1Cn1cc(C2CCCC2)nn1 [Ex 4.2.32.]	7.22	5.57
CO[C@@H]1[C@@H](n2cc(-c3ccc(Br)c(F)c3F)nn2)[C@@H](O)[C@@H](CO)O[C@@H]1Cn1cc(C2(O)CCCC2)nn1 [Ex 4.2.33.]	7.00	5.39
CO[C@@H]1[C@@H](n2cc(-c3ccc(Br)c(F)c3F)nn2)[C@@H](O)[C@@H](CO)O[C@@H]1Cn1cc(C(C)(C)O)nn1 [Ex 4.2.34.]	7.00	5.26
CO[C@@H]1[C@@H](n2cc(-c3ccc(Br)c(F)c3F)nn2)[C@@H](O)[C@@H](CO)O[C@@H]1Cn1cc(C2(O)CCOCC2)nn1 [Ex 4.2.35.]	7.15	5.34
CO[C@@H]1[C@@H](n2cc(-c3ccc(Br)c(F)c3F)nn2)[C@@H](O)[C@@H](CO)O[C@@H]1Cn1cc(C2(O)CC2)nn1 [Ex 4.2.36.]	6.89	5.23
COC1=C(N2CC(c3ccc(Br)c(F)c3F)NN2)C(O)=C(CO)O[C@@H]1Cn1cc(C23CCC(NC(=O)OC(C)(C)C)(CC2)CC3)nn1 (some centres unmarked) [Ex 4.2.37.]	7.30	4.95
CCC1(c2cn(C[C@H]3O[C@H](CO)[C@H](O)[C@H](n4cc(-c5ccc(Br)c(F)c5F)nn4)[C@H]3OC)nn2)COC1 [Ex 4.2.38.]	7.30	5.65
CO[C@@H]1[C@@H](n2cc(-c3ccc(Br)c(F)c3F)nn2)[C@@H](O)[C@@H](CO)O[C@@H]1Cn1cc(C23CCC(N)(CC2)CC3)nn1 [Ex 4.2.39.]	7.22	5.66
CO[C@@H]1[C@@H](n2cc(-c3ccc(C#N)c(F)c3F)nn2)[C@@H](O)[C@@H](CO)O[C@@H]1Cc1cn(C2(C)COC2)nn1 [Ex 5.1.6.]	7.15	5.40
CO[C@@H]1[C@@H](n2cc(-c3ccc(C#N)c(F)c3F)nn2)[C@@H](O)[C@@H](CO)O[C@@H]1Cc1cn(C2(C(F)F)COC2)nn1 [Ex 5.1.53., 4-(1-((2R,3R,4S,5R,6R)-2-((1-(3-(Difluoromethyl)oxetan-3-yl)-1H-1,2,3-triazol-4-yl)methyl)-5-hydroxy-6-(hydroxymethyl)-3-methoxytetrahydro-2H-pyran-4-yl)-1H-1,2,3-triazol-4-yl)-2,3-difluorobenzonitrile]	7.22	5.87
CO[C@@H]1[C@@H](n2cc(-c3ccc(C#N)c(F)c3F)nn2)[C@@H](O)[C@@H](CO)O[C@@H]1Cc1cn(C2(C(F)(F)F)COC2)nn1 [Ex 5.1.58.]	7.15	5.72
CO[C@@H]1[C@@H](n2cc(-c3ccc(C#N)c(F)c3F)nn2)[C@@H](O)[C@@H](CO)O[C@@H]1Cc1cn([C@H]2CCOC[C@@H]2F)nn1 [Ex 5.1.66.CD]	7.52	5.80
CO[C@@H]1[C@@H](n2cc(-c3ccc(Cl)c(F)c3F)nn2)[C@@H](O)[C@@H](CO)O[C@@H]1Cc1cn(C2(C)CC(F)C2)nn1 (stereo partly drawn) [Example 2.1.47.A, (2R,3R,4S,5R,6R)-4-(4-(4-chloro-2,3-difluorophenyl)-1H-1,2,3-triazol-1-yl)-6-((1-((1S,3S)-3-fluoro-1-methylcyclobutyl)-1H-1,2,3-triazol-4-yl)methyl)-2-(hydroxymethyl)-5-methoxytetrahydro-2H-pyran-3-ol]	7.52	5.86
CO[C@@H]1[C@@H](n2cc(-c3ccc(Cl)c(F)c3F)nn2)[C@@H](O)[C@@H](CO)O[C@@H]1Cc1cn([C@@H]2CCCC2(F)F)nn1 [Example 2.1.64.A, (2R,3R,4S,5R,6R)-4-(4-(4-chloro-2,3-difluorophenyl)-1H-1,2,3-triazol-1-yl)-6-((1-((R)-2,2-difluorocyclopentyl)-1H-1,2,3-triazol-4-yl)methyl)-2-(hydroxymethyl)-5-methoxytetrahydro-2H-pyran-3-ol]	7.52	6.03
CO[C@@H]1[C@@H](n2cc(-c3ccc(Cl)c(F)c3F)nn2)[C@@H](O)[C@@H](CO)O[C@@H]1Cc1cn([C@H]2CCCC2(F)F)nn1 [Example 2.1.64.B, (2R,3R,4S,5R,6R)-4-(4-(4-chloro-2,3-difluorophenyl)-1H-1,2,3-triazol-1-yl)-6-((1-((S)-2,2-difluorocyclopentyl)-1H-1,2,3-triazol-4-yl)methyl)-2-(hydroxymethyl)-5-methoxytetrahydro-2H-pyran-3-ol]	7.52	5.63
CO[C@@H]1[C@@H](n2cc(-c3ccc(Cl)c(F)c3F)nn2)[C@@H](O)[C@@H](CO)O[C@@H]1Cc1cn([C@@H]2COCC[C@H]2F)nn1 [Example 2.1.65.A, (2R,3R,4S,5R,6R)-4-(4-(4-chloro-2,3-difluorophenyl)-1H-1,2,3-triazol-1-yl)-6-((1-((3R,4R)-4-fluorotetrahydro-2H-pyran-3-yl)-1H-1,2,3-triazol-4-yl)methyl)-2-(hydroxymethyl)-5-methoxytetrahydro-2H-pyran-3-ol]	7.22	5.74
CO[C@@H]1[C@@H](n2cc(-c3ccc(Cl)c(F)c3F)nn2)[C@@H](O)[C@@H](CO)O[C@@H]1Cc1cn([C@@H]2CCOC[C@@H]2F)nn1 [Example 2.1.66.A, (2R,3R,4S,5R,6R)-4-(4-(4-chloro-2,3-difluorophenyl)-1H-1,2,3-triazol-1-yl)-6-((1-((3R,4R)-3-fluorotetrahydro-2H-pyran-4-yl)-1H-1,2,3-triazol-4-yl)methyl)-2-(hydroxymethyl)-5-methoxytetrahydro-2H-pyran-3-ol]	8.00	6.24
CO[C@@H]1[C@@H](n2cc(-c3ccc(Cl)c(F)c3F)nn2)[C@@H](O)[C@@H](CO)O[C@@H]1Cc1cn([C@H]2CCOC[C@H]2F)nn1 [Example 2.1.66.B, (2R,3R,4S,5R,6R)-4-(4-(4-chloro-2,3-difluorophenyl)-1H-1,2,3-triazol-1-yl)-6-((1-((3S,4S)-3-fluorotetrahydro-2H-pyran-4-yl)-1H-1,2,3-triazol-4-yl)methyl)-2-(hydroxymethyl)-5-methoxytetrahydro-2H-pyran-3-ol]	7.40	5.54
CO[C@@H]1[C@@H](n2cc(-c3ccc(Cl)c(F)c3F)nn2)[C@@H](O)[C@@H](CO)O[C@@H]1Cc1cn([C@@H]2CCOC[C@H]2F)nn1 [Example 2.1.66.C, (2R,3R,4S,5R,6R)-4-(4-(4-chloro-2,3-difluorophenyl)-1H-1,2,3-triazol-1-yl)-6-((1-((3S,4R)-3-fluorotetrahydro-2H-pyran-4-yl)-1H-1,2,3-triazol-4-yl)methyl)-2-(hydroxymethyl)-5-methoxytetrahydro-2H-pyran-3-ol]	7.70	6.02
CO[C@@H]1[C@@H](n2cc(-c3ccc(Cl)c(F)c3F)nn2)[C@@H](O)[C@@H](CO)O[C@@H]1Cc1cn([C@H]2CCOC[C@@H]2F)nn1 [Example 2.1.66.D, (2R,3R,4S,5R,6R)-4-(4-(4-chloro-2,3-difluorophenyl)-1H-1,2,3-triazol-1-yl)-6-((1-((3R,4S)-3-fluorotetrahydro-2H-pyran-4-yl)-1H-1,2,3-triazol-4-yl)methyl)-2-(hydroxymethyl)-5-methoxytetrahydro-2H-pyran-3-ol]	8.00	6.11
